Laboratory results from US20250262230A1, “HMGB1 Inhibitors for Treatment of APOE4-related Tauopathies including Alzheimer’s Disease” (The J. David Gladstone Institutes, a testamentary trust …, priority 2022, published 2025).

B1: HMGB1: recombinant HMGB1 protein used to treat primary neurons (protein, listed as Homo sapiens)
chain: MGKGDPKKPRGKMSSYAFFVQTCREEHKKKHPDASVNFSEFSKKCSERWKTMSAKEKGKFEDMAKADKARYEREMKTYIPPKGETKKKFKDPNAPKRPPSAFFLFCSEYRPKIKGEHPGLSIGDVAKKLGEMWNNTAADDKQPYEKKAAKLKEKYEKDIAAYRAKGKPDAAKKGVVKAEKSKKKKEEEEDEEDEEDEEEEEDEEDEDEEEDDDDE

Legend:
PS19-fE4 primary neurons = assay: Recombinant protein treatment of primary neurons, APOE sandwich ELISA of cell lysates; assay type: cell-based, mouse; conditions: 10 μg/mL recombinant protein, 24 hours, day 14 in vitro
Experimental: (§1) Biochemically extracted mouse hippocampal tissue lysates were diluted in Milli-Q H2O to the appropriate concentration and were run according to the provided manufacturer protocols (human APOE (Abcam); mouse HMGB1 (Novus Biologicals). Reactions of samples were read on a SpectraMaX M5 spectrophotometer (Molecular Devices) and protein concentrations were determined after interpolating a standard curve and adjusting for dilutions.
(§2) Primary cultures of neurons were prepared from prenatal E20 pups of various genotypes. After collecting pup brains, the cortex plus hippocampus were isolated and placed in ice-cold dissociation media+kyneurenic acid media (DM/KY) (DM:Na2SO4 (81.8 mM); K2SO4 (30 mM); MgCl2 (5.8 mM), CaCl2) (0.25 mM); HEPES (1 mM); glucose (20 mM); phenol red (0.001%); NaOH (0.16 mM) in distilled H2O) (KY: kynurenic acid (10 mM); phenol red (0.0025%); HEPES (5 mM); MgCl2 (100 mM); NaOH (add dropwise until pH 7.4). The resulting DM/KY media was made by combining 90% DM with 10% KY media. The isolated tissue was finely minced and then submerged in pre-warmed Papain solution (1 mL per brain) for 13 minutes while gently inverting and then submerged in trypsin inhibitor solution for 5 minutes (5 mL for up to 10 brains) while gently inverting. The tissue pellet was washed with Optimem/Glucose solution (20 mM glucose, 1 mL per brain) while gently inverting. Then, fresh Optimem/Glucose solution was added and tissue was gently triturated until separated into single cells. After filtering the cells through a 40 um cell strainer, the dissociated cells were plated at 1×10^6 cells/well of a 12-well plate or 3×10^5 cells/well of a 24-well plate in Neurobasal medium supplemented with B27, 100 U/mL^−1 of penicillin G, 100 µg/mL^−1 of streptomycin, and 1% GlutaMAX (B27/Neurobasal). Every 3-4 days, half of the media was removed and replaced with fresh B27/Neurobasal media. In some experiments, primary neurons were treated with either a Dulbecco's PBS (dPBS) vehicle or a recombinant protein of interest (10 μg/mL for one well of a 12-well plate) for 24 hours at day 14 in vitro. […]
(§3) The inventors hypothesized that astrocytic APOE4 may regulate neuronal APOE4 expression by promoting the release of these factors that activate the neuronal ERK pathway, leading to increased neuronal APOE4 expression. […] The APOE protein levels were then quantitatively evaluated in the primary neuronal cell lysates by sandwich ELISA.
(§4) Experiments were also performed to determine whether HMGB1 is a potential modulatory factor of neuronal APOE4 expression. As such, primary neurons isolated from PS19-fE4/GFAP-Cre and PS19-fE4 mice were treated with 10 μg/mL of recombinant HMGB1 protein or a dPBS control and the APOE protein levels were quantitatively evaluated in cell lysates by sandwich ELISA.

[1] = system: PS19-fE4/GFAP-Cre primary neurons; assay: as above; assay type: cell-based, mouse; conditions: 10 μg/mL recombinant protein, 24 hours, day 14 in vitro
Experimental: as §1, §2, §3, §4

Molecule | APOE protein levels in cell lysates vs dPBS control (PS19-fE4 primary neurons) | increase in APOE protein levels relative to the dPBS control [1] [%] | APOE protein levels in cell lysates vs dPBS control [1]
DPP10: recombinant DPP10 protein used to treat primary neurons | no significant difference in APOE levels | 98 | 
B1 | A significant difference was not observed |  | A significant difference was not observed
